# Data from patent publication EP0151577B1 (priority 1983, dated 1984).
# What was measured:
# [1] = system: cellules des neuroblastomes; test: Inhibition of serotonin incorporation into neuroblastoma cells in vitro; type: cell-based; details: 0°C
# [2] = Solubility in water and organic solvents; type: physicochemical
# Excerpt: II est insoluble dans le benzene, l'acetate d'ethyle et le chloroforme.
# [3] = system: 5-HT (dans tout le cerveau); test: Amount of serotonin (5-HT) in whole brain, spectrophotofluorometric; type: in vivo, souris
# Excerpt: Les quantités de sérotonine ont été estimees par une méthode spectrophotofluorométrique, telle que décrite par Solomon et al. Biochem. Pharmacology 14, 831 (1965). Les résultats de ces essais sont rassemblés dans le Tableau 10 ci-après.
# • * Chaque valeur représente la moyenne de quatre animaux d'experience (souris) • ** La concentration de 5-HT est exprimée par gramme de tissu frais (cerveau).
# [4] = system: souris; test: Pentobarbital sleeping time; type: in vivo
# Description: (§2) Les mesures ont été faites a 15, 30 et 60 minutes après I'administration par voie intrapéritonéale (i.p.) a des souris.
# [5] = system: souris; test: General pharmacological profile: respiratory rate; type: in vivo; details: souris
# Excerpt: (§1) Activite motrice spontanée: MODIGH, K., Central and peripheral effects of 5-hydroxytryptophan on motor activity in mice. Psychopharmacologia (Berlin), 23, 48, 1972. Cadence respiratoire: […], S., and VALZELLI, L. Serotonin and cardiovascular system, Chapter 9, in "Serotonin", Elsevier Publ. Co. Amsterdam 1965.
# COHEN, Y. and BLANCHARD, P. Influence de la chelation du calcium sur les effets tensionnels de la sérotonine chez le chien. J. Physiol., 52, 569,1960.
# BRAUNWALD, E. Control of myocardial oxygen consumption: Physiologic and clinical considerations. Am. J. Cardiol., 27 (4), 416,1971.
# [6] = system: souris; test: Rotarod test
# Description: as §2
# [7] = system: souris; test: Anti-stress activity: milk-induced leucocytosis; type: in vivo; details: 174 mg/kg i.p.; 0,1 ml de lait s.c. before treatment; lait seulement 23866 ± 214
# [8] = system: souris; test: Tremor score in mice pretreated with a MAO inhibitor (Harmaline); type: in vivo; details: for Score total (tremblements): Harmaline pretreatment, 5 souris
# Description: Les conditions expérimentales étaient les suivantes:
# Chez des souris prétraitées par un inhibiteur de la MAO (Harmaline 25 mg/kg/ P.O.), I'injection de 5HTP (1 heure après l'IMAO) entraîne l'apparition de tremblements plus ou moins généralisés, accompagnés ou non d'hyperactivité motrice et qui sont dus a I'accumulation de sérotonine non dégradée au niveau des récepteurs post-synaptiques cérébraux. On peut établir pour chaque souris une cotation chiffrée suivant l'intensité des symptômes observes au cours du temps (cotation toutes les 5 min. entre la 5ème et la 45ème min. après I'injection de 5 HTP puis toutes les 15 min. jusqu'à la 75ème min.).
# On additionne en une score total tous les chiffres obtenus aux différents temps sur des lots de 5 ou 10 souris.
# Les actions du 5 HTP ont été comparées a celles du DF-5HTP.
# [9] = system: souris; test: General pharmacological profile: spontaneous motor activity; type: in vivo; details: souris
# Excerpt: as §1
# [10] = system: souris; test: Anticonvulsant activity, MES; type: in vivo
# Excerpt: Activite anticonvulsivante (MES): % de protection Temps de sommeil au pentobarbital: WYATT, R.J., ZARKONE, V. […], K., DEMENT, W.C., SMYDER, F. and SJOERDSMA, A., Effects of 5-Hydroxytryptophan on the sleep of normal human subjects. Electroencephaly and Clinical Neurophysiology 30, 5051971.
# [11] = system: M. Leprae; test: Multiplication of M. leprae in mouse foot pads; type: in vivo, Mycobacterium leprae; details: 20 mg/kg par voie orale, daily from inoculation
# Description: Le tableau 7 contient les résultats d'essai concernant l'activité du DF-5HTP sur les M. leprae sur les pattes de souris. Le protocole experimental était le suivant:
# MESTER, L., and BALAKRISHNAN, S., Desoxyfructo-serotonin: First Human Metabolite with Antileprosy Activity. Acta Lepr. N°83, 21, 1981.
# La dose de DF-5HTP était de 0,5 mg par 5 g de nourriture et par souris. Cette dose était administrée tous les jours a partir de la date d'inoculation. Les essais ont porté sur un lot de 24 souris.
# Protocole: Sur la patte de chaque souris on a inoculé 5 x 10^6 M.leprae montrant un index morphologique (I. M.) = 2 %. Les chiffres suivis par X indiquent la multiplication de M. leprae initialement inoculé. (Pour la méthode utilisée voir MESTER, L., and BALAKRISHNAN, S., Desoxyfructo-serotonin: First Human Metabolite with Antileprosy Activity, Acta Lepr. N° 83, 21,1981.
# [12] = 100 mg/kg (ip), 15 min, Tableau 2
structure (smiles),measurement,setting,value
"O=C(O)C(Cc1c[nH]c2ccc(O)cc12)NCC1(O)OCC(O)C(O)C1O (stereo not drawn) [DF-5HTP, N-1-desoxyfructo-5-hydroxytryptophane]",% Inhibition à 0°C de l'incorporation de la sérotonine dans les cellules nerveuses,[1],50%
same,"solubilité dans le benzene, l'acetate d'ethyle et le chloroforme","[2]; benzene, acetate d'ethyle, chloroforme",insoluble
same,soluble dans I'eau,[2]; eau,facilement soluble
same,Quantités de 5-HT (dans tout le cerveau),"[3]; 100 mg/kg i.p., 15 min., Solution Saline 60,0, mean of 4 souris","87,5"
same,Quantités de 5-HT (dans tout le cerveau),"[3]; 174 mg/kg i.p., 15 min., Solution Saline 60,0, mean of 4 souris","75,0"
same,Quantités de 5-HT (dans tout le cerveau),"[3]; 174 mg/kg i.p., 30 min., par gramme de tissu frais, Solution Saline 107","200,4"
same,Quantités de 5-HT (dans tout le cerveau),"[3]; 174 mg/kg i.p., 60 min., par gramme de tissu frais, Solution Saline 100","160,8"
same,Temps de sommeil au pentobarbital % du témoin (témoin =100),[4]; [12],140 % du témoin
same,Temps de sommeil au pentobarbital % du témoin (témoin =100),"[4]; 100 mg/kg (ip), 30 min",114 % du témoin
same,Temps de sommeil au pentobarbital % du témoin (témoin =100),"[4]; 100 mg/kg (ip), 60 min",103 % du témoin
same,Temps de sommeil au pentobarbital % du témoin (témoin =100),"[4]; 174 mg/kg (ip), 15 min",93 % du témoin
same,Temps de sommeil au pentobarbital % du témoin (témoin =100),"[4]; 174 mg/kg (ip), 30 min",95 % du témoin
same,Temps de sommeil au pentobarbital % du témoin (témoin =100),"[4]; 174 mg/kg (ip), 60 min",91 % du témoin
same,Cadence respira-toire,"[5]; 100 mg/kg (ip), Tableau 2",sans effet
same,Cadence respira-toire,[5]; 174 mg/kg (ip),sans effet
same,Essai à la tige Rotarod: Défaut de coordination musculaire observé (Nbre de souris),"[6]; 100 mg/kg (ip), 15 min",0/5
same,Essai à la tige Rotarod: Défaut de coordination musculaire observé (Nbre de souris),"[6]; 100 mg/kg (ip), 30 min",0/5
same,Essai à la tige Rotarod: Défaut de coordination musculaire observé (Nbre de souris),"[6]; 100 mg/kg (ip), 60 min",0/5
same,Essai à la tige Rotarod: Défaut de coordination musculaire observé (Nbre de souris),"[6]; 174 mg/kg (ip), 15 min",0/5
same,Essai à la tige Rotarod: Défaut de coordination musculaire observé (Nbre de souris),"[6]; 174 mg/kg (ip), 30 min",0/5
same,Essai à la tige Rotarod: Défaut de coordination musculaire observé (Nbre de souris),"[6]; 174 mg/kg (ip), 60 min",0/5
same,Performance à l'essai Rotarod Moyenne (Sec),"[6]; 174 mg/kg i.p., témoin 11,3 ± 3,1","16,4 ± 2,4 (30) Sec"
same,Effet sur la leu-cocytose induite par le lait Moyenne T.L.C./Cmm,[7],10468 ± 130 (8) /Cmm
same,Score total (tremblements),[8]; 150 mg/kg S.C. (mole for mole 75 mg/kg of 5 HTP),0
same,Score total (tremblements),[8]; 500 mg/kg S.C.,0
same,activité dans l'essai des tremblements,"[8]; souris pretreated with Harmaline, overall statement",inactif
same,Activité motrice spontanée,"[9]; 100 mg/kg (ip), Tableau 2",légère augmentation
same,Activité motrice spontanée,[9]; 174 mg/kg (ip),augmentation
same,Activité anticon-vulsivante MES % protection,[10]; [12],0%
same,Activité anticon-vulsivante MES % protection,"[10]; 100 mg/kg (ip), 30 min",0%
same,Activité anticon-vulsivante MES % protection,"[10]; 100 mg/kg (ip), 60 min",0%
same,Activité anticon-vulsivante MES % protection,"[10]; 174 mg/kg (ip), 15 min",20%
same,Activité anticon-vulsivante MES % protection,"[10]; 174 mg/kg (ip), 30 min",20%
same,Activité anticon-vulsivante MES % protection,"[10]; 174 mg/kg (ip), 60 min",0%
same,multiplication de M. Leprae sur les pattes des souris,"[11]; 4 mois après inoculation, témoins 33,8 X","2,8 X"
same,multiplication de M. Leprae sur les pattes des souris,"[11]; 6 mois après inoculation, témoins 38,4 X",Négatif
